Structures can show the parent of a compound that is named as a salt. Where two headings read alike, the source gives them in different places.
Legend:
Format in all cases: biochemical
[1] = biological target: PI3Kγ (Homo sapiens (Human), UniProt P48736); test: TR-FRET enzymatic assay of PI3K isoforms (PI3Kγ); details: read-out: γ IC50
Experimental: (§1) The compounds of formula (I) were characterized for their enzymatic activity against the PI3K isoforms. Certain compounds of the present application, including certain compounds of formula (II) and (III) were also characterized for their enzymatic activity against PI3K isoforms. The activities were measured using a time-resolved fluorescence resonance energy transfer (TR-FRET) assay.

[2] = biological target: PI3Kδ (Homo sapiens (Human), UniProt O00329); test: TR-FRET enzymatic assay of PI3K isoforms (PI3Kδ); details: 2×Km ATP, 2 μM PIP2, incubated for 30 minutes at 25° C., read-out: δ IC50
Experimental: as §1

[3] = biological target: PI3Kβ (Homo sapiens (Human), UniProt P42338); test: TR-FRET enzymatic assay of PI3K isoforms (PI3Kβ); details: TR-FRET, 2×Km ATP, 2 μM PIP2, incubated for 30 minutes at 25° C.; read-out: β IC50
Experimental: as §1

[4] = TR-FRET, 2×Km ATP, 2 μM PIP2, PI3Kγ at 2 nM, incubated for 30 minutes at 25° C.

Chain of PI3Kδ (O00329 whole entry, canonical isoform): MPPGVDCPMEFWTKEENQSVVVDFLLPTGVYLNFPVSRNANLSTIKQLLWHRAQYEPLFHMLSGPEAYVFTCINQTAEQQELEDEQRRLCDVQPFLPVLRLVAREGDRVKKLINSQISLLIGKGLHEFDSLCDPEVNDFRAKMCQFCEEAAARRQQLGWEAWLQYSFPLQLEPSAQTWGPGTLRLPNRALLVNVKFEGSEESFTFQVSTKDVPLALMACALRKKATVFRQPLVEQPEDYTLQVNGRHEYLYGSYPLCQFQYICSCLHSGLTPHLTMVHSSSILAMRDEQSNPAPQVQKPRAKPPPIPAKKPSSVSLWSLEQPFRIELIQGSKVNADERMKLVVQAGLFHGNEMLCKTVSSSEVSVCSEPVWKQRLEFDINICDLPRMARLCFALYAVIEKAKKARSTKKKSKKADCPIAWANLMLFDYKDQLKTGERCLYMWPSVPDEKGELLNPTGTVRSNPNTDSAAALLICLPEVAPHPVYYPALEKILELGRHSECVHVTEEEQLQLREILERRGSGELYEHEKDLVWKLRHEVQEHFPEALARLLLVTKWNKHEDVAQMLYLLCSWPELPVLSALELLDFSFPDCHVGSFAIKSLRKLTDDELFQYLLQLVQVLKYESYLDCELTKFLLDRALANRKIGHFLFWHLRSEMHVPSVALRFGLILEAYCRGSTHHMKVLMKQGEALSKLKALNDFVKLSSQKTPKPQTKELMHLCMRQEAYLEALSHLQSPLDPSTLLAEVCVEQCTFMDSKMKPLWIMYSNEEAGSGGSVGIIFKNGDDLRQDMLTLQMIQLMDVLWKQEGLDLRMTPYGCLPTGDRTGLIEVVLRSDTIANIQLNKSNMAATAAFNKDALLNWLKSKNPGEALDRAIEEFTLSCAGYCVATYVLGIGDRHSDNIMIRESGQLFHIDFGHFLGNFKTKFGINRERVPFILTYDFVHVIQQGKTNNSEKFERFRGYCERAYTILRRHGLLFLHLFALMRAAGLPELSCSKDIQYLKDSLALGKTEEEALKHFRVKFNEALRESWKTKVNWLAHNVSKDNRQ
Chain of PI3Kδ (P27986 whole entry partner, canonical isoform): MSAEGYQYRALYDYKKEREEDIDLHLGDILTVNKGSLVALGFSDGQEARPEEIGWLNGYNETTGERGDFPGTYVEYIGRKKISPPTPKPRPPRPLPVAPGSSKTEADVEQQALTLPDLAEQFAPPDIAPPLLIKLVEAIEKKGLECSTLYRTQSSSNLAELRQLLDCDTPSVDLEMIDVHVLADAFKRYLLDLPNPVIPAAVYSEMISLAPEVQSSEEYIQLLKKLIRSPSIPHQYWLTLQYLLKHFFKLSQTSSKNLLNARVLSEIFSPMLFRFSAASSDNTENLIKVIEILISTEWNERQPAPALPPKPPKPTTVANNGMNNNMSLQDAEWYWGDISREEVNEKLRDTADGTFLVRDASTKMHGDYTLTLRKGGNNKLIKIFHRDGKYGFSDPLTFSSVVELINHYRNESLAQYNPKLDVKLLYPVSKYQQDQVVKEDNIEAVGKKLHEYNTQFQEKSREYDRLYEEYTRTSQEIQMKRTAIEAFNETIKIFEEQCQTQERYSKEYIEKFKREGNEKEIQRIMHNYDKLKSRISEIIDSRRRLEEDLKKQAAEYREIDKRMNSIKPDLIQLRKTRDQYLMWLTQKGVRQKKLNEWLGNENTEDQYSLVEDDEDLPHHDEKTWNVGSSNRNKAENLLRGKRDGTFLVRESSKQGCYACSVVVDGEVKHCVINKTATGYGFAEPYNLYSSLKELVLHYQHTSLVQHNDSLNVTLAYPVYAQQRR
Chain of PI3Kγ (P48736 whole entry, canonical isoform): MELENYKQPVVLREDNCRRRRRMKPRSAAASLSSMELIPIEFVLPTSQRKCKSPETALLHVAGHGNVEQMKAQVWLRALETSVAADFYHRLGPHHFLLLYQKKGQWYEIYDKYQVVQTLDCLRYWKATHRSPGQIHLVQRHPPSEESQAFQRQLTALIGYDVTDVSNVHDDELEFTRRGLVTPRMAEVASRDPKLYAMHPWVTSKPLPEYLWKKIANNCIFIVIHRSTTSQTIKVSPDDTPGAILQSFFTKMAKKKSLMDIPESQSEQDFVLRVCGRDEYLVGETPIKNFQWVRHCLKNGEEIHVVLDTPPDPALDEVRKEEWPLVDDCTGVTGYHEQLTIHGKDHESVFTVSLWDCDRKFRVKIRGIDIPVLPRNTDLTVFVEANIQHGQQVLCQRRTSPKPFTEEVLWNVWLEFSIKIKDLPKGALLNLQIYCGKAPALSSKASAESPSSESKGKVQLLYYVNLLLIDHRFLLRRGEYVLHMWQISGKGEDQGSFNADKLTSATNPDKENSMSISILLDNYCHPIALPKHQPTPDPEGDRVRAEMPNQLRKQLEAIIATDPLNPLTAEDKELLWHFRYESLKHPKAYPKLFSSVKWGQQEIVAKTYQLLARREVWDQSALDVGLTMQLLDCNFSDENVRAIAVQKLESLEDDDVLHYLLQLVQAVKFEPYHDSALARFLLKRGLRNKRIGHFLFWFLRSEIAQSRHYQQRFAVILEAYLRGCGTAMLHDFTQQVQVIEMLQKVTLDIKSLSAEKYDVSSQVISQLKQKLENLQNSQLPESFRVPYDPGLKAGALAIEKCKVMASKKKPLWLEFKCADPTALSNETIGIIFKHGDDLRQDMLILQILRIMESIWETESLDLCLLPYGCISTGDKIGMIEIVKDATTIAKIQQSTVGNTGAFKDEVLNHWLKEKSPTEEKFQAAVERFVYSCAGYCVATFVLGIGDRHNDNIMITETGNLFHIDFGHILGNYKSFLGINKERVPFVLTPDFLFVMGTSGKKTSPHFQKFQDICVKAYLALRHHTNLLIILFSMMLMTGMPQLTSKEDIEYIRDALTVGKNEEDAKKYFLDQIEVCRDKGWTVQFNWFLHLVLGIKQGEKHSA
Chain of PI3Kγ (Q8WYR1 whole entry partner, canonical isoform): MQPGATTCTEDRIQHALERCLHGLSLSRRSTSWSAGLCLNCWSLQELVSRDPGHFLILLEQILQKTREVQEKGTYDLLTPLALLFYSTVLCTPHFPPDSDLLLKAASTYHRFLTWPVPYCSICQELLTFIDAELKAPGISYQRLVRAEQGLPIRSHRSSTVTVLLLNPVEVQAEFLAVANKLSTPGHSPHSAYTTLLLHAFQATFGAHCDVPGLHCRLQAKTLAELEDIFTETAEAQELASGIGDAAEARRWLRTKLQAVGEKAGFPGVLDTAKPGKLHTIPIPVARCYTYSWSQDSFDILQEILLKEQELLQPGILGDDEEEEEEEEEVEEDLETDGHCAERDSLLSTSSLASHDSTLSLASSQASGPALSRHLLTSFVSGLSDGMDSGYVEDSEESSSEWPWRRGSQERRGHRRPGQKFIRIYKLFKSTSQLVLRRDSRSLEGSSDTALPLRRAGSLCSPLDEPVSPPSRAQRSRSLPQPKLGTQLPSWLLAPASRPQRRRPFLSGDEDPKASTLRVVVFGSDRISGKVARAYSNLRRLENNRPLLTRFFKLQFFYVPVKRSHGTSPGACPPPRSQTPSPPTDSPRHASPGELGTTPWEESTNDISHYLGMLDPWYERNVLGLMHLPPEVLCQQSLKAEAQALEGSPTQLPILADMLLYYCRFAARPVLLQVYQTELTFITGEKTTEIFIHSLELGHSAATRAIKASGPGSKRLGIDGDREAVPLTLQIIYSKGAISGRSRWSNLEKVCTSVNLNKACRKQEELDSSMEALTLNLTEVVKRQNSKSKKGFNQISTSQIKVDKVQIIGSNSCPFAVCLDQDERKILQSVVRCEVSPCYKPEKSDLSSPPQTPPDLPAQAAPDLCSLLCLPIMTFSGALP
Chain of PI3Kβ (P42338 whole entry, canonical isoform): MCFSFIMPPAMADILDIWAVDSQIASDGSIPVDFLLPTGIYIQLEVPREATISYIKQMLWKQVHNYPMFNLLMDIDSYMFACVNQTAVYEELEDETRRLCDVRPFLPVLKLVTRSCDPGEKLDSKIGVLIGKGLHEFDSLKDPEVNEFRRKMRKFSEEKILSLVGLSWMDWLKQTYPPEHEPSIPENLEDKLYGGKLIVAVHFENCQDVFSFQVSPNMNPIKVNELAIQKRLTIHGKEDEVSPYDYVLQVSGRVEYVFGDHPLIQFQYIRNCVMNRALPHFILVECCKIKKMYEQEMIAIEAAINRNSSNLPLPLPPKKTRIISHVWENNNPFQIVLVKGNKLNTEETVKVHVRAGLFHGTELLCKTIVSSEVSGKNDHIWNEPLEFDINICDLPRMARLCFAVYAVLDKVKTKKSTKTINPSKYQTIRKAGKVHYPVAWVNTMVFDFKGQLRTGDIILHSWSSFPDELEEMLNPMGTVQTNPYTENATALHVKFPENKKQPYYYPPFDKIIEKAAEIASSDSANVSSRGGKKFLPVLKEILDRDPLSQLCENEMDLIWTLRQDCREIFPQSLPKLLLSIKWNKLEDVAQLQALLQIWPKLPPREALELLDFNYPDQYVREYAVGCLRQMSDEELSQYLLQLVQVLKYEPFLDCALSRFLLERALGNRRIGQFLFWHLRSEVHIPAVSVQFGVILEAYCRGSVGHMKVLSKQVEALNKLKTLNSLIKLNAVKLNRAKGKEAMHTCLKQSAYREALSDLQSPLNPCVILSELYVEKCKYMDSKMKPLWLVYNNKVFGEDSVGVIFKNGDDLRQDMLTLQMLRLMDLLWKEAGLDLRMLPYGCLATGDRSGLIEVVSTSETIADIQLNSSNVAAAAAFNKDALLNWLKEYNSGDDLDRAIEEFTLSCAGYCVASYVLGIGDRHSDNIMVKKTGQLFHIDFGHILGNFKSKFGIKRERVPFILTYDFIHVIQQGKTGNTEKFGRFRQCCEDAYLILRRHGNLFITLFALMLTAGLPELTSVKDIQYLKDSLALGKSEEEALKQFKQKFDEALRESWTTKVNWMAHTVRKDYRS
Chain of PI3Kβ (P27986 whole entry partner, canonical isoform): as the sequence (P27986 whole entry partner, canonical isoform) above

Structure (SMILES)	IC50 [1, 4] [nM]	IC50 [2] [nM]	IC50 [3] [nM]	IC50 [1] [nM]
Cc1ccccc1NC(=O)Nc1cccc(-n2c([C@H](C)Nc3ncnc(N)c3C#N)nc3cccc(Cl)c3c2=O)c1 [Compound 107, (S)-1-(3-(2-(1-((6-amino-5-cyanopyrimidin-4-yl)amino)ethyl)-5-chloro-4-oxoquinazolin-3(4H)-yl)phenyl)-3-(o-tolyl)urea]	1500	6	16	
C[C@H](Nc1ncnc(N)c1C#N)c1nc2cccc(F)c2c(=O)n1-c1cccc(NC(=O)Nc2ccccc2Cl)c1 [Compound 108, (S)-1-(3-(2-(1-((6-amino-5-cyanopyrimidin-4-yl)amino)ethyl)-5-fluoro-4-oxoquinazolin-3(4H)-yl)phenyl)-3-(2-chlorophenyl)urea]	8500	24	3	
COc1ccccc1NC(=O)Nc1cccc(-n2c([C@H](C)Nc3ncnc(N)c3C#N)nc3cccc(Cl)c3c2=O)c1 [Compound 109, (S)-1-(3-(2-(1-((6-amino-5-cyanopyrimidin-4-yl)amino)ethyl)-5-chloro-4-oxoquinazolin-3(4H)-yl)phenyl)-3-(2-methoxyphenyl)urea]	2600	2	9	
C[C@H](Nc1ncnc(N)c1C#N)c1nc2cccc(F)c2c(=O)n1-c1cccc(NC(=O)Nc2ccccc2C(F)(F)F)c1 [Compound 110, (S)-1-(3-(2-(1-((6-amino-5-cyanopyrimidin-4-yl)amino)ethyl)-5-fluoro-4-oxoquinazolin-3(4H)-yl)phenyl)-3-(2-(trifluoromethyl)phenyl)urea]	> 10000	57	16	
C[C@H](Nc1ncnc(N)c1C#N)c1nc2cccc(Cl)c2c(=O)n1-c1cccc(NC(=O)Nc2ccncc2Cl)c1 [Compound 111, (S)-1-(3-(2-(1-((6-amino-5-cyanopyrimidin-4-yl)amino)ethyl)-5-chloro-4-oxoquinazolin-3(4H)-yl)phenyl)-3-(3-chloropyridin-4-yl)urea, trifluoroacetic acid salt]	4300	7	4	
C[C@H](Nc1ncnc2[nH]cnc12)c1nc2cccc(Cl)c2c(=O)n1-c1cccc(NC(=O)Nc2ccncc2Cl)c1 [Compound 112, (S)-1-(3-(2-(1-((9H-purin-6-yl)amino)ethyl)-5-chloro-4-oxoquinazolin-3(4H)-yl)phenyl)-3-(3-chloropyridin-4-yl)urea]	1600	26	6	
C[C@H](Nc1ncnc(N)c1C#N)c1nc2cccc(Cl)c2c(=O)n1-c1cccc(NC(=O)Nc2nnn[nH]2)c1 [Compound 114, (S)-1-(3-(2-(1-((6-amino-5-cyanopyrimidin-4-yl)amino)ethyl)-5-chloro-4-oxoquinazolin-3(4H)-yl)phenyl)-3-(1H-tetrazol-5-yl)urea]	3800	10	37	
CONC(=O)Nc1cccc(-n2c([C@H](C)Nc3ncnc(N)c3C#N)nc3cccc(Cl)c3c2=O)c1 [Compound 115, (S)-1-(3-(2-(1-((6-amino-5-cyanopyrimidin-4-yl)amino)ethyl)-5-chloro-4-oxoquinazolin-3(4H)-yl)phenyl)-3-methoxyurea]	3700	5	14	
C[C@H](Nc1ncnc(N)c1C#N)c1nc2cccc(Cl)c2c(=O)n1-c1cccc(NC(=O)NCCN(C)C)c1 [Compound 116, (S)-1-(3-(2-(1-((6-amino-5-cyanopyrimidin-4-yl)amino)ethyl)-5-chloro-4-oxoquinazolin-3(4H)-yl)phenyl)-3-(2-(dimethylamino)ethyl)urea, trifluoroacetic acid salt]	> 10000	4	2	
C[C@H](Nc1ncnc(N)c1C#N)c1nc2cccc(Cl)c2c(=O)n1-c1cccc(NC(=O)NCCO)c1 [Compound 117, (S)-1-(3-(2-(1-((6-amino-5-cyanopyrimidin-4-yl)amino)ethyl)-5-chloro-4-oxoquinazolin-3(4H)-yl)phenyl)-3-(2-hydroxyethyl)urea]	8300	6	4	
C[C@H](Nc1ncnc(N)c1C#N)c1nc2cccc(Cl)c2c(=O)n1-c1cccc(NC(=O)Nc2ccccc2)c1 [Compound 118, (S)-1-(3-(2-(1-((6-amino-5-cyanopyrimidin-4-yl)amino)ethyl)-5-chloro-4-oxoquinazolin-3(4H)-yl)phenyl)-3-phenylurea]	1000	8	3	
C[C@H](Nc1ncnc(N)c1C#N)c1nc2cccc(Cl)c2c(=O)n1-c1cccc(NC(=O)Nc2cccnc2)c1 [Compound 119, (S)-1-(3-(2-(1-((6-amino-5-cyanopyrimidin-4-yl)amino)ethyl)-5-chloro-4-oxoquinazolin-3(4H)-yl)phenyl)-3-(pyridin-3-yl)urea, trifluoroacetic acid salt]	1400	5	3	
CC(C)NC(=O)Nc1cccc(-n2c([C@H](C)Nc3ncnc(N)c3C#N)nc3cccc(Cl)c3c2=O)c1 [Compound 120, (S)-1-(3-(2-(1-((6-amino-5-cyanopyrimidin-4-yl)amino)ethyl)-5-chloro-4-oxoquinazolin-3(4H)-yl)phenyl)-3-isopropylurea]	4800	7	9	
C[C@H](Nc1ncnc(N)c1C#N)c1nc2cccc(Cl)c2c(=O)n1-c1cccc(NC(=O)NC2CCCC2)c1 [Compound 121, (S)-1-(3-(2-(1-((6-amino-5-cyanopyrimidin-4-yl)amino)ethyl)-5-chloro-4-oxoquinazolin-3(4H)-yl)phenyl)-3-cyclopentylurea]	1600	3	3	
C[C@H](Nc1ncnc(N)c1C#N)c1nc2cccc(Cl)c2c(=O)n1-c1cccc(NC(=O)NC2CCCCC2)c1 [Compound 122, (S)-1-(3-(2-(1-((6-amino-5-cyanopyrimidin-4-yl)amino)ethyl)-5-chloro-4-oxoquinazolin-3(4H)-yl)phenyl)-3-cyclohexylurea]	2000	4	3	
C[C@H](Nc1ncnc(N)c1C#N)c1nc2cccc(Cl)c2c(=O)n1-c1cccc(NC(=O)NC2CCC2)c1 [Compound 123, (S)-1-(3-(2-(1-((6-amino-5-cyanopyrimidin-4-yl)amino)ethyl)-5-chloro-4-oxoquinazolin-3(4H)-yl)phenyl)-3-cyclobutylurea]	2200	3	7	
C[C@H](Nc1ncnc(N)c1C#N)c1nc2cccc(Cl)c2c(=O)n1-c1cccc(NC(=O)NC(C)(C)C)c1 [Compound 124, (S)-1-(3-(2-(1-((6-amino-5-cyanopyrimidin-4-yl)amino)ethyl)-5-chloro-4-oxoquinazolin-3(4H)-yl)phenyl)-3-(tert-butyl)urea]	3300	9	14	
C[C@H](Nc1ncnc(N)c1C#N)c1nc2cccc(Cl)c2c(=O)n1-c1cccc(NC(=O)NC2CC2)c1 [Compound 125, (S)-1-(3-(2-(1-((6-amino-5-cyanopyrimidin-4-yl)amino)ethyl)-5-chloro-4-oxoquinazolin-3(4H)-yl)phenyl)-3-cyclopropylurea]	3400	7	7	
CCCNC(=O)Nc1cccc(-n2c([C@H](C)Nc3ncnc(N)c3C#N)nc3cccc(Cl)c3c2=O)c1 [Compound 126, (S)-1-(3-(2-(1-((6-amino-5-cyanopyrimidin-4-yl)amino)ethyl)-5-chloro-4-oxoquinazolin-3(4H)-yl)phenyl)-3-propylurea]	2900	4	8	
C[C@H](Nc1ncnc(N)c1C#N)c1nc2cccc(Cl)c2c(=O)n1-c1cccc(NC(=O)NCCF)c1 [Compound 127, (S)-1-(3-(2-(1-((6-amino-5-cyanopyrimidin-4-yl)amino)ethyl)-5-chloro-4-oxoquinazolin-3(4H)-yl)phenyl)-3-(2-fluoroethyl)urea]	5800	5	8	
C[C@H](Nc1ncnc(N)c1C#N)c1nc2cccc(Cl)c2c(=O)n1-c1cccc(NC(=O)NCCCO)c1 [Compound 128, (S)-1-(3-(2-(1-((6-amino-5-cyanopyrimidin-4-yl)amino)ethyl)-5-chloro-4-oxoquinazolin-3(4H)-yl)phenyl)-3-(3-hydroxypropyl)urea]	5600	4	9	
CC(O)CNC(=O)Nc1cccc(-n2c([C@H](C)Nc3ncnc(N)c3C#N)nc3cccc(Cl)c3c2=O)c1 (stereo partly drawn) [Compound 129, 1-(3-(2-((S)-1-((6-amino-5-cyanopyrimidin-4-yl)amino)ethyl)-5-chloro-4-oxoquinazolin-3(4H)-yl)phenyl)-3-(2-hydroxypropyl)urea]	5600	4	9	
O=C(NCCCO)Nc1cccc(-n2c([C@H](COCc3ccccc3)Nc3ncnc4[nH]cnc34)nc3cccc(Cl)c3c2=O)c1 [Compound 131, (R)-1-(3-(2-(1-((9H-purin-6-yl)amino)-2-(benzyloxy)ethyl)-5-chloro-4-oxoquinazolin-3(4H)-yl)phenyl)-3-(3-hydroxypropyl)urea]		41	43	> 10000
CCNC(=O)Nc1cccc(-n2c([C@H](COCc3ccccc3)Nc3ncnc(N)c3C#N)nc3cccc(Cl)c3c2=O)c1 [Compound 132, (R)-1-(3-(2-(1-((6-amino-5-cyanopyrimidin-4-yl)amino)-2-(benzyloxy)ethyl)-5-chloro-4-oxoquinazolin-3(4H)-yl)phenyl)-3-ethylurea]	8700	10	21	
